Literature values, collected in US20260218136A1, “R[…], COMPOSITIONS, AND METHODS OF USE” (priority 2022, published 2026).

Settings: target and test not given; stated in the description of the rapalog bridging factor

## CO[C@H]1[C@@H](O)[C@H](C)C[C@H](C)/C=C/C=C/C=C(\C)[C@@H](c2c[nH]c3c(C)cccc23)C[C@@H]2CC[C@@H](C)[C@@](O)(O2)C(=O)C(=O)N2CCCC[C@H]2C(=O)O[C@H]([C@H](C)C[C@@H]2CC[C@@H](O)[C@H](OC)C2)C[C@H](O)[C@H](C)/C=C(\C)[C@H]1O [AP21967, C-16-(S)-7-methylindolerapamycin]
  IC50: 10 nM
